Earlier results on two compounds are cited in patent publication US6297239A, “Inhibitors of prenyl-protein transferase” (Merck & Co., Inc., priority 1998, dated 2001).

In the data set the test system is farnesyl-protein transferase. To be noted: via inhibition of HMG-CoA reductase.

Consider `CC[C@H](C)C(=O)O[C@H]1CCC=C2C=C[C@H](C)[C@H](CC[C@@H]3C[C@@H](O)CC(=O)O3)[C@H]21` [compactin], for which the “indirect inhibition of farnesyl-protein transferase in vivo” value is reported as “Indirect inhibition”. On to `CC[C@H](C)C(=O)O[C@H]1C[C@@H](C)C=C2C=C[C@H](C)[C@H](CC[C@@H]3C[C@@H](O)CC(=O)O3)[C@H]21` [lovastatin], for which the “indirect inhibition of farnesyl-protein transferase in vivo” value is reported as “Indirect inhibition”.
